Results: US6174896A, “Quinuclidine derivatives and medicinal composition thereof” (Yamanouchi Pharmaceutical Co., Ltd., priority 1994, dated 2001)

Test system: oxotremorine-induced salivary secretion
Assay: Test on salivary secretion in rat
Assay type: in vivo
Details: urethane-anesthetized male Wistar rat, oxotremorine 0.8 μmol/kg
Procedure: A male Wistar rat (160-190 g) was subjected to anesthesia with urethane (0.8 g/kg i.p.), and the test compound was administered (to the control group: solvent). Fifteen minutes later, 0.8 μmol/kg of oxotremorine was administered. In each case, the drug was administered through its femoral artery. The saliva secreted for 5 minutes after the administration of oxotremorine was collected and weighed. The inhibition ratio against the amount of saliva in the control group was determined and the dose of the test compound required for 50% inhibition of the amount of saliva in the control group was designated as ID50.

CN1[C@@H]2CC[C@H]1C[C@@H](OC(=O)C(CO)c1ccccc1)C2 (stereo partly shown) [atropine]
ID50 value (salivary secretion) compared with ED30 value (rhythmic bladder contraction): substantially the same
